This series is described as follows: Oxidation and reduction potential of fullerodendrimer. Format: physicochemical.

As for `c12c3c4c5c1c1c6c7c2c2c8c3c3c9c4c4c%10c5c5c1c1c6c6c%11c7c2c2c7c8c3c3c8c9c4c4c9c%10c5c5c1c1c6c6c%11c2c2c7c3c3c8c4c4c9c5c1c1c6c2c3c41` [Example C60, C60], the first oxidation potential entry is given as “+1,120 mV” and the first reduction potential was −1,120 mV.
